Assay results: US7691965B2, “Helical synthetic peptides that stimulate cellular cholesterol efflux” (The Regents of the University of California, priority 2002, dated 2010)
Where a SMILES comes first, the peptide text is derived from it.

B1: ARMEEMGSRTRDRLDEVKEQVAEVRAKLEEQAQQIRLQAEAFQARLKSWFEPLVEDMQRQWAGLVEKVQAAVGTSAAPVPSDNH (protein)
chain: ARMEEMGSRTRDRLDEVKEQVAEVRAKLEEQAQQIRLQAEAFQARLKSWFEPLVEDMQRQWAGLVEKVQAAVGTSAAPVPSDNH
modifications: apolipoprotein Apo E, C-terminal domain (aa216-299)
notes: C-terminal domain, amino acid residues 216-299 of Apo E

What was measured:
[1] = biological target: T1, ABCA1 (Mus musculus, UniProt P41233); experiment: Cellular cholesterol efflux from [3H]cholesterol-labeled J774 macrophages with and without cAMP analog; assay type: cell-based; parameters: endogenous in cells; host or cells: J774 macrophages treated with a cAMP analog (CPT-cAMP or 8-bromo-cAMP); conditions: lipid-free acceptor, J774 macrophages with vs without cAMP analog
Description: Suitable cholesterol efflux assays are described in, e.g., Bielicki, J. K and Oda, M. N., Biochemistry, 41:2089-2096 (2002); Jia, Z. et al., Biochem. Biophys. Res. Common., 297:206-213 (2002). In some embodiments, a polypeptide known to mediate cholesterol efflux (e.g., helix 9/10 of Apo A-I) is used to screen for additional mediators of cholesterol efflux in a cell based assay. For example, cell lines in which cholesterol efflux can be enhanced using a cAMP analog that up-regulates ABCA1 protein expression (e.g., J774 macrophages) can conveniently be used to assess the ability of an Apo A-I, Apo A-II, Apo A-IV, Apo E, Apo C-I, Apo C-II, Apo C-III, or Serum Amyloid A peptide to mediate cholesterol efflux. The cells are incubated with labeled cholesterol (e.g., [^3H]cholesterol) under conditions appropriate for cholesterol uptake by the cells. cAMP or cAMP analogs (e.g., CPT-cAMP) is incubated with the cells for a suitable time before the initiation of cellular cholesterol efflux, i.e., prior to contacting the cells with helix 9/10 of Apo A-I or the test compound. Measurement of labeled cholesterol appearing in the medium is used to determine the cholesterol efflux mediating activity of the test compound.
Cellular Cholesterol Efflux Protocol—J774 macrophages were used to assess the cholesterol efflux properties of synthetic amphipathic α-helical peptides (Bielicki, J. K and Oda, M. N., Biochemistry, 41:2089-2096 (2002); Jia, Z. et al., Biochem. Biophys. Res. Common., 297:206-213 (2002)). This cell line was chosen because cholesterol efflux can be enhanced using a cAMP analog that up-regulates ABCA1 protein expression. The cells were seeded onto 24-well culture plates and labeled for 48 h with [^3H]cholesterol in RPMI 1640 supplemented with 1% fetal bovine serum. The cAMP analog CPT-cAMP was added (0.3 mM, final concentration) to the cells at least 12 h before the initiation of cellular cholesterol efflux. Synthetic peptides in lipid-free form were added to cells in serum-free RPMI. The lipid-free form of full-length recombinant apoA-I was used as a positive control to define apparent ABCA1-dependent cholesterol efflux in the presence and absence of cAMP stimulation. Efflux results were expressed as a percentage of the initial cellular [^3H] appearing in the medium as a function of time subtracting the background efflux obtained using serum-free medium alone.

[2] = Relative lipid binding affinity by surface balance technique (monolayer exclusion pressure); assay type: physicochemical; conditions: surface balance technique
Description: Relative Lipid Binding Affinity, Hydrophobicity, and Amphiphilicity of Synthetic Peptides—In some experiments, the relative lipid binding affinity of unique peptides was quantified using a surface balance technique (Gillotte, K L. et al., J. Biol. Chem., 274:2021-2028 (1999)). For routine analyses, a turbid solution of dimyristoylphosphatidylcholine (DMPC) was used to assess the relative capacity of synthetic peptides to solubilize phospholipid as described (Palgunachari, M. N. et al., Arterioscler. Thromb. Vasc. Biol., 16:328-338 (1996); McLean, L. R. and Hagaman, K. A., Biochim. Biophys. Acta, 1167:289-295 (1993)). The DMPC was used at a final concentration of 0.08 mg/ml in 10 mM Tris-saline (pH 7.4). The final weight ratio of peptides relative to DMPC was 1:1. The absorbance (400 nm) of samples was monitored continuously over a period of 30 min at 25° C. Hydrophobicity of helical peptides was calculated using the consensus scale (Eisenberg D., Annu. Rev. Biochem., 53:593-623 (1984)). The hydrophobic moment (kcal/mol) of synthetic peptides, which is a measure of helix amphiphilicity, was calculated as described by Eisenberg et al. (Eisenberg, D. et al., Nature, 299:371-374 (1982)).

[3] = biological target: T1, ABCA1; experiment: ABCA1 stabilization: immunoblot of ABCA1 protein in J774 macrophage membranes after cAMP withdrawal; assay type: cell-based; parameters: J774 macrophages were used to assess relative ABCA1 protein levels in the presence and absence of synthetic peptides; endogenous in cells; host or cells: J774 macrophages treated with a cAMP analog (CPT-cAMP or 8-bromo-cAMP); conditions: 20 μg/ml peptide, 6 h without cAMP, J774 macrophages
Method: J774 macrophages were incubated (18 h) with 0.5 mM 8-bromo-cAMP in medium containing 0.1% bovine serum albumin to up-regulate ABCA1 protein expression. Washed cells were subsequently exposed for 6 h to bovine serum albumin medium with (+) or without (−) 8-bromo-cAMP and the indicated synthetic peptides (20 μg/ml). None refers to no peptides. The cellular membrane content of ABCA1 protein was measured by immunoblot analysis.
ABCA1 Stabilization—J774 macrophages were used to assess relative ABCA1 protein levels in the presence and absence of synthetic peptides. Cells were grown in 10% fetal bovine serum, extensively rinsed, and incubated (18 h) with Dulbecco's modified Eagle's medium containing 0.1% bovine serum albumin plus the cAMP analog 8-bromo-cAMP. Cells were next exposed to synthetic peptides or serum-free medium in the absence of the cAMP stimulus to evaluate whether ABCA1 protein was stabilized or degraded. Relative levels of ABCA1 protein were assessed by immunoblot analysis of cell membranes (Oram, J. F. et al., J. Biol. Chem., 278:52379-52385 (2003)). ABCA1 was visualized using an enhanced chemiluminescence detection assay.
To assess ABCA1 stabilization, J774 macrophages were treated with a cAMP analog to up-regulate ABCA1 protein expression and then incubated for 6 h without cAMP. In the absence of inducer, ABCA1 protein is rapidly degraded in these cells (FIG. 9). […] Thus, it appears that the helical combinations that stimulate cholesterol efflux also stabilize the ABCA1 transporter.

T1 sequence (P41233 whole entry): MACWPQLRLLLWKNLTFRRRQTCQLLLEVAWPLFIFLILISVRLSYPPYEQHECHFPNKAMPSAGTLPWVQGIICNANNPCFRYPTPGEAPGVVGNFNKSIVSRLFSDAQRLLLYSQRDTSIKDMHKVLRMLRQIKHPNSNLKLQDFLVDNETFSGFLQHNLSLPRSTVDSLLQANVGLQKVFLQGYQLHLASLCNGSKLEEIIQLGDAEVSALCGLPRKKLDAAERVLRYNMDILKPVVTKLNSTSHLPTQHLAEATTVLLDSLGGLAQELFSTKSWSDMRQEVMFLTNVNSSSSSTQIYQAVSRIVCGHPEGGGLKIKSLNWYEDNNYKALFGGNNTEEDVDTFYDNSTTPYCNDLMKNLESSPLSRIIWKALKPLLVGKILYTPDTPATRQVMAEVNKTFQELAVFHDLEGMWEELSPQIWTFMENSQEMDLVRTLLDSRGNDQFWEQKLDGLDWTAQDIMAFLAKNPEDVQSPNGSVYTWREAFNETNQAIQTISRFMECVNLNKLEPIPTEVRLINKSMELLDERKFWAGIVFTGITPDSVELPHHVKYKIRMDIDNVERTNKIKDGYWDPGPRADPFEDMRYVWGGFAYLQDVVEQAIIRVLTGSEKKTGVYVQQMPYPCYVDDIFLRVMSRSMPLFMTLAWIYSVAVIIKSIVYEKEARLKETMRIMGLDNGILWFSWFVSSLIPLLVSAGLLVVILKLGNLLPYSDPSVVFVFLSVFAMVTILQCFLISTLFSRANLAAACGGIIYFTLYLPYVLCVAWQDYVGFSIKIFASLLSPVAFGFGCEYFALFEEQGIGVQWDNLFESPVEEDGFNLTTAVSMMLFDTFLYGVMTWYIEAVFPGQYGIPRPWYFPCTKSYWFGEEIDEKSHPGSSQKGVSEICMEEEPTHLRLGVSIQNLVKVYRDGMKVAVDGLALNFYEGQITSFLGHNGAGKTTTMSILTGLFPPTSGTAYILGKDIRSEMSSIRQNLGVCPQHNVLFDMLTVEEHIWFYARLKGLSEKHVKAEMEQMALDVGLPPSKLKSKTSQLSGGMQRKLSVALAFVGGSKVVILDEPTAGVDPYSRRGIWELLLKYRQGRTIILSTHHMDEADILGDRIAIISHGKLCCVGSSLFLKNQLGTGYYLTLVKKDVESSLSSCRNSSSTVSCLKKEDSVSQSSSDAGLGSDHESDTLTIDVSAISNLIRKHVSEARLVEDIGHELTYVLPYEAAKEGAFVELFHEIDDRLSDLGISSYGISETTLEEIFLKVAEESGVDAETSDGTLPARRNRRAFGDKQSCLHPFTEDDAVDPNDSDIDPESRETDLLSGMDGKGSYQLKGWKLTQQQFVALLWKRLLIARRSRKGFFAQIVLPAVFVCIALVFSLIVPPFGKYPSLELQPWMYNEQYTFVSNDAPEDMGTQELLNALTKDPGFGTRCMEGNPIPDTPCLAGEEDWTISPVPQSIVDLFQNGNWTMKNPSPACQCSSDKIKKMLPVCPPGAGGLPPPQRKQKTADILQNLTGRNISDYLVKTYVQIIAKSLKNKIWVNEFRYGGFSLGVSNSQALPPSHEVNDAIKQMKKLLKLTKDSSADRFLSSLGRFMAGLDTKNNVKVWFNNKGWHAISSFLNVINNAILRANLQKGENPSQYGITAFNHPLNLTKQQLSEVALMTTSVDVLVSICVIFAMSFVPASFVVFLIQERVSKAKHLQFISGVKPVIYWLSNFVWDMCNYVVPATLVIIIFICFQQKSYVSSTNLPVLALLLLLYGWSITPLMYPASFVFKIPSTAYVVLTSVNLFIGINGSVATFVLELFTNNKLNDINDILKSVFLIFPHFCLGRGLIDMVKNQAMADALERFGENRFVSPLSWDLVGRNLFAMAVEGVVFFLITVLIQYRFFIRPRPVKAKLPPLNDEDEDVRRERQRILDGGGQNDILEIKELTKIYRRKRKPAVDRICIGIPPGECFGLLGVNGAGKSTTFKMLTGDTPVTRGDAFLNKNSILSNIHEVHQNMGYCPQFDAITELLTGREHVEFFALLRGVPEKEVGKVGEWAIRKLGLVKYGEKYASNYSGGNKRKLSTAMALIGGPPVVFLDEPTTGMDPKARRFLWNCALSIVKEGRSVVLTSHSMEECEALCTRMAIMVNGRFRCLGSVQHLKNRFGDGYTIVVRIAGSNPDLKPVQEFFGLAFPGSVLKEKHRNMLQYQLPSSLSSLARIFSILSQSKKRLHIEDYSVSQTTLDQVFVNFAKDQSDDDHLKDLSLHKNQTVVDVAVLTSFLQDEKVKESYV

Molecule | ABCA1-dependent cholesterol efflux (result in words) [1] | Monolayer exclusion pressure [2] | ABCA1 stabilization (result in words) [3] | other results
CSCC[C@H](NC(=O)[C@H](CCC(=O)O)NC(=O)[C@H](CCC(=O)O)NC(=O)[C@H](CCC(N)=O)NC(=O)[C@H](Cc1c[nH]c2ccccc12)NC(=O)[C@H](CCCCN)NC(=O)[C@H](CCCCN)NC(=O)[C@H](CCC(N)=O)NC(=O)[C@H](Cc1ccccc1)NC(=O)[C@H](CC(=O)O)NC(=O)[C@H](CC(=O)O)NC(=O)[C@H](CC(C)C)NC(=O)[C@H](Cc1ccc(O)cc1)NC(=O)[C@@H]1CCCN1C(C)=O)C(=O)N[C@@H](CCC(=O)O)C(=O)N[C@@H](CC(C)C)C(=O)N[C@@H](Cc1ccc(O)cc1)C(=O)N[C@@H](CCCNC(=N)N)C(=O)N[C@@H](CCC(N)=O)C(=O)N[C@@H](CCCCN)C(=O)N[C@H](C(=O)N[C@@H](CCC(=O)O)C(=O)N1CCC[C@H]1C(=O)N[C@@H](C)C(=O)N[C@@H](CC(C)C)C(=O)N[C@@H](CCC(=O)O)C(=O)N[C@@H](CC(=O)O)C(=O)N[C@@H](CC(C)C)C(=O)N[C@@H](CCCNC(=N)N)C(=O)N[C@@H](CCC(N)=O)C(=O)NCC(=O)N[C@@H](CC(C)C)C(=O)N[C@@H](CC(C)C)C(N)=O)C(C)C [Helical peptide 4/9] (Ac-PYLDDFQKKWQEEMELYRQKVEPALEDLRQGLL-NH2) | failed to mediate ABCA1-dependent cholesterol efflux | – | – | –
CSCC[C@H](NC(=O)[C@H](CCC(=O)O)NC(=O)[C@H](CCC(N)=O)NC(=O)[C@H](CCCNC(=N)N)NC(=O)[C@H](CC(C)C)NC(=O)CNC(=O)[C@H](CCC(=O)O)NC(=O)[C@@H](NC(=O)[C@H](CCC(=O)O)NC(=O)[C@H](CCCCN)NC(=O)[C@H](CCC(=O)O)NC(=O)[C@H](CC(C)C)NC(=O)[C@H](CC(N)=O)NC(=O)[C@H](CC(=O)O)NC(=O)[C@H](Cc1c[nH]c2ccccc12)NC(=O)[C@H](Cc1ccccc1)NC(=O)[C@H](CCC(=O)O)NC(=O)[C@H](CCC(N)=O)NC(=O)[C@@H](NC(=O)[C@@H](NC(=O)[C@@H]1CCCN1C(C)=O)C(C)C)[C@@H](C)O)[C@@H](C)O)C(=O)N[C@@H](CO)C(N)=O [Helical peptide 2] (Ac-PVTQEFWDNLEKETEGLRQEMS-NH2) | – | 17 dynes/cm | – | –
CSCC[C@H](NC(=O)[C@H](CCC(=O)O)NC(=O)[C@H](CCC(N)=O)NC(=O)[C@H](CCCNC(=N)N)NC(=O)[C@H](CC(C)C)NC(=O)CNC(=O)[C@H](CCC(=O)O)NC(=O)[C@@H](NC(=O)[C@H](CCC(=O)O)NC(=O)[C@H](CCCCN)NC(=O)[C@H](CCC(=O)O)NC(=O)[C@H](CC(C)C)NC(=O)[C@H](CC(N)=O)NC(=O)[C@H](CC(=O)O)NC(=O)[C@H](Cc1c[nH]c2ccccc12)NC(=O)[C@H](Cc1ccccc1)NC(=O)[C@H](CCC(=O)O)NC(=O)[C@H](CCC(N)=O)NC(=O)[C@@H](NC(=O)[C@@H](NC(=O)[C@@H]1CCCN1C(C)=O)C(C)C)[C@@H](C)O)[C@@H](C)O)C(=O)N[C@@H](CO)C(=O)N1CCC[C@H]1C(=O)N[C@@H](C)C(=O)N[C@@H](CC(C)C)C(=O)N[C@@H](CCC(=O)O)C(=O)N[C@@H](CC(=O)O)C(=O)N[C@@H](CC(C)C)C(=O)N[C@@H](CCCNC(=N)N)C(=O)N[C@@H](CCC(N)=O)C(=O)NCC(=O)N[C@@H](CC(C)C)C(=O)N[C@@H](CC(C)C)C(N)=O [Helical peptide 2/9] (Ac-PVTQEFWDNLEKETEGLRQEMSPALEDLRQGLL-NH2) | failed to stimulate ABCA1-dependent cholesterol efflux | 19 dynes/cm | – | –
CC(=O)N1CCC[C@H]1C(=O)N[C@@H](C)C(=O)N[C@@H](CC(C)C)C(=O)N[C@@H](CCC(=O)O)C(=O)N[C@@H](CC(=O)O)C(=O)N[C@@H](CC(C)C)C(=O)N[C@@H](CCCNC(=N)N)C(=O)N[C@@H](CCC(N)=O)C(=O)NCC(=O)N[C@@H](CC(C)C)C(=O)N[C@@H](CC(C)C)C(N)=O [Helical peptide 9] (Ac-PALEDLRQGLL-NH2) | failed to stimulate ABCA1-dependent cholesterol efflux | – | failed to prevent ABCA1 degradation | –
CC(=O)N1CCC[C@H]1C(=O)N[C@H](C(=O)N[C@@H](CC(C)C)C(=O)N[C@@H](CCC(=O)O)C(=O)N[C@@H](CO)C(=O)N[C@@H](Cc1ccccc1)C(=O)N[C@@H](CCCCN)C(=O)N[C@H](C(=O)N[C@@H](CO)C(=O)N[C@@H](Cc1ccccc1)C(=O)N[C@@H](CC(C)C)C(=O)N[C@@H](CO)C(=O)N[C@@H](C)C(=O)N[C@@H](CC(C)C)C(=O)N[C@@H](CCC(=O)O)C(=O)N[C@@H](CCC(=O)O)C(=O)N[C@@H](Cc1ccc(O)cc1)C(=O)N[C@H](C(=O)N[C@@H](CCCCN)C(=O)N[C@@H](CCCCN)C(=O)N[C@@H](CC(C)C)C(=O)N[C@@H](CC(N)=O)C(=O)N1CCC[C@H]1C(=O)N[C@@H](C)C(=O)N[C@@H](CC(C)C)C(=O)N[C@@H](CCC(=O)O)C(=O)N[C@@H](CC(=O)O)C(=O)N[C@@H](CC(C)C)C(=O)N[C@@H](CCCNC(=N)N)C(=O)N[C@@H](CCC(N)=O)C(=O)NCC(=O)N[C@@H](CC(C)C)C(=O)N[C@@H](CC(C)C)C(N)=O)[C@@H](C)O)C(C)C)C(C)C [Helical peptide 10/9] (Ac-PVLESFKVSFLSALEEYTKKLNPALEDLRQGLL-NH2) | failed to stimulate ABCA1-dependent cholesterol efflux | – | failed to prevent ABCA1 degradation | –
B1 | – | – | – | ABCA1-dependent cholesterol efflux (result in words) ([1]; listed as C-terminal domain of apoE): potent stimulator of cholesterol efflux; ABCA1-dependent cholesterol efflux (result in words) ([1]; listed as CT domain): more effective than full-length apoE3
